biological target: T1, Human complement C1s enzyme (Homo sapiens, UniProt P09871); assay: Human C1s enzyme assay; assay type: biochemical; conditions: human complement C1s enzyme 1.16 nM, substrate Z-L-Lys-SBzl 100 μM, 5 min preincubation; read-out: IC50 (Stars), C1s Inhibiting Activity
T1 sequence (P09871 438-688 limits assumed): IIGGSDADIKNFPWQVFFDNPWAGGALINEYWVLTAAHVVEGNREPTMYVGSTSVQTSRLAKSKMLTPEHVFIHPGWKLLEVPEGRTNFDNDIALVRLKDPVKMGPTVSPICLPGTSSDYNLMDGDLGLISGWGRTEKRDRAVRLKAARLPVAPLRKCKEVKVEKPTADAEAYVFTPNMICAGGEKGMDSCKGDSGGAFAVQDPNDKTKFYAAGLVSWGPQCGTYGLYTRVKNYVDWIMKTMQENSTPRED
T1 sequence (P09871 16-437 partner limits assumed): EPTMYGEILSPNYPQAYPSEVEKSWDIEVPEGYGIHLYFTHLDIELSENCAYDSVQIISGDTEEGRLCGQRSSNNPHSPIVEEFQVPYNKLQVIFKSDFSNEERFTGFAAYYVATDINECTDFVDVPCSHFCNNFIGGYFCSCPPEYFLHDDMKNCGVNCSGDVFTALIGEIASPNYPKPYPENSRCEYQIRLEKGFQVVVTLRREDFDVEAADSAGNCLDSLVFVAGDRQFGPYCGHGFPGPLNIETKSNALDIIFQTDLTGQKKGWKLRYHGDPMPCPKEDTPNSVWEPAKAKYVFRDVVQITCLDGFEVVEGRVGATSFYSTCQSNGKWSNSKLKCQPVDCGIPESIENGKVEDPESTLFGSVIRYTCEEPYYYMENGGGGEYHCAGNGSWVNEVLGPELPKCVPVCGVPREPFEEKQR
Procedure, shortened: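 Serum-purified human C1s (1.16 nM final) preincubated 5 min at room temperature with compound in 50 mM Tris, 1 M NaCl, pH 7.5. Z-L-Lys-SBzl and DTNB added at 100 μM each; A405 followed every 30 s for 30 min, and IC50 obtained by nonlinear regression of reaction rates.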

IC50, > 1000 nM:
COc1ccc2[nH]c(CNC(=O)[C@@H]3CC4(CN3C(=O)CNC(=O)c3ccc5c(c3)Oc3ccccc3S5)OCCO4)cc2c1 [Compound 52, (S)-N-((5-methoxy-1H-indol-2-yl)methyl)-7-((phenoxathiine-3-carbonyl)glycyl)-1,4-dioxa-7-azaspiro[4.4]nonane-8-carboxamide]
O=C(NCC(=O)N1C[C@H](OC(F)F)C[C@H]1C(=O)NCc1ccc2c(c1)CNCC2)c1ccc2c(c1)Oc1ccccc1S2 [Compound 226, (2S,4R)-4-(difluoromethoxy)-1-((phenoxathiine-3-carbonyl)glycyl)-N-((1,2,3,4-tetrahydroisoquinolin-7-yl)methyl)pyrrolidine-2-carboxamide]
O=C(NCC(=O)N1C[C@H](OC(F)F)C[C@H]1C(=O)NCc1ccc2c(n1)NCC2)c1ccc2c(c1)Oc1ccccc1S2 [Compound 265, (2S,4R)-4-(difluoromethoxy)-N-((2,3-dihydro-1H-pyrrolo[2,3-b]pyridin-6-yl)methyl)-1-((phenoxathiine-3-carbonyl)glycyl)pyrrolidine-2-carboxamide]
C[C@@H](NC(=O)[C@@H]1C[C@@H](S(C)(=O)=O)CN1C(=O)CNC(=O)c1ccc(-c2ccc(F)cc2F)cc1)c1cc2cnccc2[nH]1 [Compound 85, (2S,4R)-N-((R)-1-(1H-pyrrolo[3,2-c]pyridin-2-yl)ethyl)-1-((2′,4′-difluoro-[1,1′-biphenyl]-4-carbonyl)glycyl)-4-(methylsulfonyl)pyrrolidine-2-carboxamide]
O=C(NCC(=O)N1C[C@H](OC(F)F)C[C@H]1C(=O)NCc1ccc2ocnc2c1)c1ccc2c(c1)Oc1ccccc1S2 [Compound 282, (2S,4R)-N-(benzo[d]oxazol-5-ylmethyl)-4-(difluoromethoxy)-1-((phenoxathiine-3-carbonyl)glycyl)pyrrolidine-2-carboxamide]
Cn1c(CNC(=O)[C@@H]2CC3(CN2C(=O)CNC(=O)c2ccc4c(c2)Oc2ccccc2S4)OCCO3)cc2cnccc21 [Compound 46, (S)-N-((1-methyl-1H-pyrrolo[3,2-c]pyridin-2-yl)methyl)-7-((phenoxathiine-3-carbonyl)glycyl)-1,4-dioxa-7-azaspiro[4.4]nonane-8-carboxamide]
C[C@@H](NC(=O)[C@@H]1C[C@@H](OC(F)F)CN1C(=O)CNC(=O)c1cccc2c1-c1ccccc1C2(F)F)c1cc2cnccc2[nH]1 [Compound 134, (2S,4R)-N-((R)-1-(1H-pyrrolo[3,2-c]pyridin-2-yl)ethyl)-1-((9,9-difluoro-9H-fluorene-4-carbonyl)glycyl)-4-(difluoromethoxy)pyrrolidine-2-carboxamide]
O=C(NCc1cc2cnccc2[nH]1)[C@@H]1C[C@@H](OC(F)F)CN1C(=O)CN1Cc2ncc(-c3ccc(F)cc3)cc2C1=O [Compound 138, (2S,4R)-N-((1H-pyrrolo[3,2-c]pyridin-2-yl)methyl)-4-(difluoromethoxy)-1-(2-(3-(4-fluorophenyl)-5-oxo-5,7-dihydro-6H-pyrrolo[3,4-b]pyridin-6-yl)acetyl)pyrrolidine-2-carboxamide]
C[C@@H](NC(=O)[C@@H]1C[C@@H](OC(F)F)CN1C(=O)CNC(=O)c1ccc2c(c1)-c1ccccc1C2(F)F)c1cc2cnccc2s1 [Compound 207, (2S,4R)-1-((9,9-difluoro-9H-fluorene-3-carbonyl)glycyl)-4-(difluoromethoxy)-N-((R)-1-(thieno[3,2-c]pyridin-2-yl)ethyl)pyrrolidine-2-carboxamide]
C[C@@]12C[C@@H]1N(C(=O)CNC(=O)c1ccc(Oc3ccccc3)cc1)[C@H](C(=O)NCc1ccc(Cl)cc1)C2 [Compound 373, (1S,3S,5S)-N-(4-chlorobenzyl)-5-methyl-2-((4-phenoxybenzoyl)glycyl)-2-azabicyclo[3.1.0]hexane-3-carboxamide]

IC50, < 100 nM:
O=C(CCCOc1ccccc1)NCC(=O)N1CC2(C[C@H]1C(=O)NCc1cc3cnccc3[nH]1)OCCO2 [Compound 20, (S)-N-((1H-pyrrolo[3,2-c]pyridin-2-yl)methyl)-7-((4-phenoxybutanoyl)glycyl)-1,4-dioxa-7-azaspiro[4.4]nonane-8-carboxamide]
O=C(NCC(=O)N1C[C@@](F)(CF)C[C@H]1C(=O)NCc1cc2cnccc2[nH]1)c1ccc2oc3ccccc3c2c1 [Compound 187, (2S,4R)-N-((1H-pyrrolo[3,2-c]pyridin-2-yl)methyl)-1-((dibenzo[b,d]furan-2-carbonyl)glycyl)-4-fluoro-4-(fluoromethyl)pyrrolidine-2-carboxamide]
Cc1ccc(Cc2cccc(C(=O)NCC(=O)N3C[C@H](OC(F)F)C[C@H]3C(=O)NCc3cc4cnccc4[nH]3)c2)c(F)c1 [Compound 305, (2S,4R)-N-((1H-pyrrolo[3,2-c]pyridin-2-yl)methyl)-4-(difluoromethoxy)-1-((3-(2-fluoro-4-methylbenzyl)benzoyl)glycyl)pyrrolidine-2-carboxamide]
O=C(NCC(=O)N1CC2(C[C@H]1C(=O)NCc1cc3cnccc3[nH]1)OCCO2)c1cccc(Oc2ccccc2)c1 [Compound 144, (S)-N-((1H-pyrrolo[3,2-c]pyridin-2-yl)methyl)-7-((3-phenoxybenzoyl)glycyl)-1,4-dioxa-7-azaspiro[4.4]nonane-8-carboxamide]
C[C@@H](NC(=O)[C@@H]1C[C@@H](S(C)(=O)=O)CN1C(=O)CNC(=O)c1ccc2c(c1)Oc1ccccc1S2)c1cc2cnccc2[nH]1 [Compound 238, (2S,4R)-N-((R)-1-(1H-pyrrolo[3,2-c]pyridin-2-yl)ethyl)-4-(methylsulfonyl)-1-((phenoxathiine-3-carbonyl)glycyl)pyrrolidine-2-carboxamide]
O=C(NCC(=O)N1CC[C@@H](O)[C@H]1C(=O)NCc1cc2cnccc2[nH]1)c1ccc2c(c1)Oc1ccccc1S2 [Compound 158, (2S,3R)-N-((1H-pyrrolo[3,2-c]pyridin-2-yl)methyl)-3-hydroxy-1-((phenoxathiine-3-carbonyl)glycyl)pyrrolidine-2-carboxamide]
COC[C@H]1C[C@@H](C(=O)N[C@H](C)c2cc3cnccc3[nH]2)N(C(=O)CNC(=O)c2ccc3c(c2)Oc2ccccc2S3)C1 [Compound 132, (2S,4S)-N-((R)-1-(1H-pyrrolo[3,2-c]pyridin-2-yl)ethyl)-4-(methoxymethyl)-1-((phenoxathiine-3-carbonyl)glycyl)pyrrolidine-2-carboxamide]
O=C(NCC(=O)N1C[C@H](OC(F)F)C[C@H]1C(=O)NCc1cc2cnccc2[nH]1)c1cccc(Oc2ccsc2)c1 [Compound 303, (2S,4R)-4-(difluoromethoxy)-N-(1H-pyrrolo[3,2-c]pyridin-2-ylmethyl)-1-[2-[[3-(3-thienyloxy)benzoyl]amino]acetyl]pyrrolidine-2-carboxamide]
Cc1ccc(Oc2cc(C(=O)NCC(=O)N3C[C@H](OC(F)F)C[C@H]3C(=O)NCc3cc4cnccc4[nH]3)ccc2C)cc1 [Compound 244, (2S,4R)-N-((1H-pyrrolo[3,2-c]pyridin-2-yl)methyl)-4-(difluoromethoxy)-1-((4-methyl-3-(p-tolyloxy)benzoyl)glycyl) pyrrolidine-2-carboxamide]
Cc1ccc(Oc2cccc(C(=O)NCC(=O)N3N=CC[C@H]3C(=O)NCc3cc4cnccc4[nH]3)c2F)cc1 [Compound 375, (S)-N-((1H-pyrrolo[3,2-c]pyridin-2-yl)methyl)-1-((2-fluoro-3-(p-tolyloxy)benzoyl)glycyl)-4,5-dihydro-1H-pyrazole-5-carboxamide]
C[C@@H](NC(=O)[C@@H]1C[C@]2(Cc3nccs3)C[C@@H]2N1C(=O)CNC(=O)c1ccc2c(c1)Oc1ccccc1S2)c1cc2cnccc2[nH]1 [Compound 186, (1S,3S,5S)-N-((R)-1-(1H-pyrrolo[3,2-c]pyridin-2-yl)ethyl)-2-((phenoxathiine-3-carbonyl)glycyl)-5-(thiazol-2-ylmethyl)-2-azabicyclo[3.1.0]hexane-3-carboxamide]
CCc1ccc(Oc2cc(F)cc(C(=O)NCC(=O)N3[C@H]4C[C@@]4(C)C[C@H]3C(=O)NCc3cc4cnccc4[nH]3)c2)cc1 [Compound 371, (1S,3S,5S)-N-((1H-pyrrolo[3,2-c]pyridin-2-yl)methyl)-2-((3-(4-ethylphenoxy)-5-fluorobenzoyl)glycyl)-5-methyl-2-azabicyclo[3.1.0]hexane-3-carboxamide]
C[C@@H](NC(=O)[C@@H]1CC2(CCCCC2)CN1C(=O)CNC(=O)c1ccc2c(c1)Oc1ccccc1S2)c1cc2cnccc2[nH]1 [Compound 234, (S)-N-((R)-1-(1H-pyrrolo[3,2-c]pyridin-2-yl)ethyl)-2-((phenoxathiine-3-carbonyl)glycyl)-2-azaspiro[4.5]decane-3-carboxamide]

Reference: patent publication US20260062443A1 (ALEXION PHARMACEUTICALS, INC., priority 2022, published 2026)
